Laboratory results published in ChEMBL document CHEMBL3885861, “Open TG-GATES”.

Species on record: Rattus norvegicus
Test: Open TG-GATES - Regimen: Daily Repeat
Type: toxicity, organism-based, Sprague-Dawley
Design: regimen Daily Repeat, gender Male, age 6 weeks
Settings: in vivo, po, 10 mg/kg, route gavage, dose level Low; for APTT / Bas / Eos / Fbg / Hb / Ht / Lym / MCH / MCHC / MCV / Mono / Neu / PT / Plat / RBC / Ret / WBC: tissue Blood; for KIDNEY_L / KIDNEY_R / KIDNEY_TOTAL: tissue Kidney; for LIVER: tissue Liver; for A/G / ALP / ALT / AST / BUN / CRE / Ca / Cl / DBIL / GLC / IP / K / LDH / Na / PL / RALB / TBIL / TC / TG / TP / gamma-GTP: tissue Plasma

SMILES: OCCOCCN1CCN(C(c2ccccc2)c2ccc(Cl)cc2)CC1 (configuration not stated) [HYDROXYZINE]
- TERMINAL_BW (72 h, time 3 day): 228.1 g
- APTT (72 h, time 3 day): 16.3 s
- Bas (72 h, time 3 day): 0%
- Eos (72 h, time 3 day): 1%
- Fbg (72 h, time 3 day): 261.4 mg/dL
- Hb (72 h, time 3 day): 13 g/dL
- Ht (72 h, time 3 day): 39.4%
- Lym (72 h, time 3 day): 75.6%
- MCH (72 h, time 3 day): 21.8 pg
- MCHC (72 h, time 3 day): 33%
- MCV (72 h, time 3 day): 65.9 fL
- Mono (72 h, time 3 day): 2.6%
- Neu (72 h, time 3 day): 20.2%
- PT (72 h, time 3 day): 16 s
- Plat (72 h, time 3 day): 110.5 x10_4/uL
- RBC (72 h, time 3 day): 598 x10_4/ul
- Ret (72 h, time 3 day): 7.3%
- WBC (72 h, time 3 day): 96.2 x10_2/uL
- KIDNEY_L (72 h, time 3 day): 1 g
- KIDNEY_R (72 h, time 3 day): 1 g
- KIDNEY_TOTAL (72 h, time 3 day): 2 g
- LIVER (72 h, time 3 day): 10.8 g
- A/G (72 h, time 3 day): 0.8
- ALP (72 h, time 3 day): 1662 IU/L
- ALT (72 h, time 3 day): 51.2 IU/L
- AST (72 h, time 3 day): 82.4 IU/L
- BUN (72 h, time 3 day): 16.2 mg/dL
- CRE (72 h, time 3 day): 0.2 mg/dL
- Ca (72 h, time 3 day): 10.8 mg/dL
- Cl (72 h, time 3 day): 105.6 meq/L
- DBIL (72 h, time 3 day): 0.018 mg/dL
- GLC (72 h, time 3 day): 182 mg/dL
- IP (72 h, time 3 day): 7.7 mg/dL
- K (72 h, time 3 day): 4 meq/L
- LDH (72 h, time 3 day): 98.8 IU/L
- Na (72 h, time 3 day): 142.8 meq/L
- PL (72 h, time 3 day): 139 mg/dL
- RALB (72 h, time 3 day): 2.6 g/dL
- TBIL (72 h, time 3 day): 0.054 mg/dL
- TC (72 h, time 3 day): 71.6 mg/dL
- TG (72 h, time 3 day): 76 mg/dL
- TP (72 h, time 3 day): 5.6 g/dL
- gamma-GTP (72 h, time 3 day): 0.8 IU/L
- TERMINAL_BW ([…], time 7 day): 259.3 g
- TERMINAL_BW ([…], time 14 day): 323.3 g
- TERMINAL_BW ([…], time 28 day): 416.4 g
- APTT ([…], time 7 day): 17 s
- Bas ([…], time 7 day): 0%
- Eos ([…], time 7 day): 1%
- Fbg ([…], time 7 day): 263 mg/dL
- Hb ([…], time 7 day): 13.8 g/dL
- Ht ([…], time 7 day): 41.3%
- Lym ([…], time 7 day): 80.6%
- MCH ([…], time 7 day): 21.5 pg
- MCHC ([…], time 7 day): 33.5%
- MCV ([…], time 7 day): 64.4 fL
- Mono ([…], time 7 day): 1.8%
- Neu ([…], time 7 day): 16.2%
- PT ([…], time 7 day): 15.7 s
- Plat ([…], time 7 day): 117.5 x10_4/uL
- RBC ([…], time 7 day): 643 x10_4/ul
- Ret ([…], time 7 day): 5.9%
- WBC ([…], time 7 day): 88.4 x10_2/uL
- APTT ([…], time 14 day): 18.1 s
- Bas ([…], time 14 day): 0%
- Eos ([…], time 14 day): 0.8%
- Fbg ([…], time 14 day): 266.4 mg/dL
- Hb ([…], time 14 day): 14.2 g/dL
- Ht ([…], time 14 day): 41.7%
- Lym ([…], time 14 day): 81.2%
- MCH ([…], time 14 day): 20.7 pg
- MCHC ([…], time 14 day): 34%
- MCV ([…], time 14 day): 60.9 fL
- Mono ([…], time 14 day): 2.4%
- Neu ([…], time 14 day): 15%
- PT ([…], time 14 day): 15.7 s
- Plat ([…], time 14 day): 111 x10_4/uL
- RBC ([…], time 14 day): 685.8 x10_4/ul
- Ret ([…], time 14 day): 4.3%
- WBC ([…], time 14 day): 106.7 x10_2/uL
- APTT ([…], time 28 day): 18.3 s
- Bas ([…], time 28 day): 0%
- Eos ([…], time 28 day): 1%
- Fbg ([…], time 28 day): 297.2 mg/dL
- Hb ([…], time 28 day): 15.4 g/dL
- Ht ([…], time 28 day): 43.7%
- Lym ([…], time 28 day): 80.4%
- MCH ([…], time 28 day): 20.6 pg
- MCHC ([…], time 28 day): 35.2%
- MCV ([…], time 28 day): 58.4 fL
- Mono ([…], time 28 day): 2%
- Neu ([…], time 28 day): 15%
- PT ([…], time 28 day): 15.9 s
- Plat ([…], time 28 day): 90.9 x10_4/uL
- RBC ([…], time 28 day): 748.8 x10_4/ul
- Ret ([…], time 28 day): 2.6%
- WBC ([…], time 28 day): 105.9 x10_2/uL
- KIDNEY_L ([…], time 7 day): 1.1 g
- KIDNEY_R ([…], time 7 day): 1.1 g
- KIDNEY_TOTAL ([…], time 7 day): 2.1 g
- KIDNEY_L ([…], time 14 day): 1.3 g
- KIDNEY_R ([…], time 14 day): 1.3 g
- KIDNEY_TOTAL ([…], time 14 day): 2.7 g
- KIDNEY_L ([…], time 28 day): 1.4 g
- KIDNEY_R ([…], time 28 day): 1.4 g
- KIDNEY_TOTAL ([…], time 28 day): 2.8 g
- LIVER ([…], time 7 day): 12.6 g
- LIVER ([…], time 14 day): 14.7 g
- LIVER ([…], time 28 day): 16.8 g
- A/G ([…], time 7 day): 0.9
- ALP ([…], time 7 day): 1602.2 IU/L
- ALT ([…], time 7 day): 41 IU/L
- AST ([…], time 7 day): 65.8 IU/L
- BUN ([…], time 7 day): 17.4 mg/dL
- CRE ([…], time 7 day): 0.2 mg/dL
- Ca ([…], time 7 day): 11.1 mg/dL
- Cl ([…], time 7 day): 106 meq/L
- DBIL ([…], time 7 day): 0.018 mg/dL
- GLC ([…], time 7 day): 189 mg/dL
- IP ([…], time 7 day): 7.2 mg/dL
- K ([…], time 7 day): 4.3 meq/L
- LDH ([…], time 7 day): 66.2 IU/L
- Na ([…], time 7 day): 142.6 meq/L
- PL ([…], time 7 day): 158.2 mg/dL
- RALB ([…], time 7 day): 2.7 g/dL
- TBIL ([…], time 7 day): 0.052 mg/dL
- TC ([…], time 7 day): 72.6 mg/dL
- TG ([…], time 7 day): 118.4 mg/dL
- TP ([…], time 7 day): 5.9 g/dL
- gamma-GTP ([…], time 7 day): 0.8 IU/L
- A/G ([…], time 14 day): 0.8
- ALP ([…], time 14 day): 1484.2 IU/L
- ALT ([…], time 14 day): 40.8 IU/L
- AST ([…], time 14 day): 67.2 IU/L
- BUN ([…], time 14 day): 15.4 mg/dL
- CRE ([…], time 14 day): 0.2 mg/dL
- Ca ([…], time 14 day): 10.6 mg/dL
- Cl ([…], time 14 day): 103.6 meq/L
- DBIL ([…], time 14 day): 0.016 mg/dL
- GLC ([…], time 14 day): 184.6 mg/dL
- IP ([…], time 14 day): 7.3 mg/dL
- K ([…], time 14 day): 4 meq/L
- LDH ([…], time 14 day): 86.2 IU/L
- Na ([…], time 14 day): 141.6 meq/L
- PL ([…], time 14 day): 163 mg/dL
- RALB ([…], time 14 day): 2.7 g/dL
- TBIL ([…], time 14 day): 0.052 mg/dL
- TC ([…], time 14 day): 74.8 mg/dL
- TG ([…], time 14 day): 142.4 mg/dL
- TP ([…], time 14 day): 6 g/dL
- gamma-GTP ([…], time 14 day): 0.6 IU/L
- A/G ([…], time 28 day): 0.8
- ALP ([…], time 28 day): 1346.6 IU/L
- ALT ([…], time 28 day): 41.4 IU/L
- AST ([…], time 28 day): 69.6 IU/L
- BUN ([…], time 28 day): 17.4 mg/dL
- CRE ([…], time 28 day): 0.2 mg/dL
- Ca ([…], time 28 day): 10.6 mg/dL
- Cl ([…], time 28 day): 105 meq/L
- DBIL ([…], time 28 day): 0.012 mg/dL
- GLC ([…], time 28 day): 196.8 mg/dL
- IP ([…], time 28 day): 6.8 mg/dL
- K ([…], time 28 day): 4 meq/L
- LDH ([…], time 28 day): 100.8 IU/L
- Na ([…], time 28 day): 142.6 meq/L
- PL ([…], time 28 day): 154.8 mg/dL
- RALB ([…], time 28 day): 2.8 g/dL
- TBIL ([…], time 28 day): 0.05 mg/dL
- TC ([…], time 28 day): 76.8 mg/dL
- TG ([…], time 28 day): 113.4 mg/dL
- TP ([…], time 28 day): 6.3 g/dL
- gamma-GTP ([…], time 28 day): 0.8 IU/L
